Assay results reported in patent US20260021059A1, “THERAPEUTIC COMBINATIONS AND METHODS” (RUTGERS, THE STATE UNIVERSITY OF NEW JERSEY, priority 2022, published 2026).
Entries after “also recorded” stand apart in the source; their conditions may differ.

Legend:
BED patients = conditions: daily LDX administration; cited from earlier work
rats [1] = test: Sleep EEG/EMG telemetry recordings over the 12 hours inactive period; conditions: d-amphetamine alone 0.75 mg/kg i.p., 1 hr prior to onset of inactive period
rats [2] = test: Palatable food intake (binge-like eating) of a fat/sucrose mixture during 30 min exposure periods; assay type: in vivo; conditions: for palatable food intake: N=12; for palatable food intake (binge-like eating): N=5
Procedure: Rats were trained to consume a palatable fat mixture (90% vegetable shortening, 10% sucrose) during brief exposure periods (30 mins) that occurred twice per week. The amount of palatable food consumed during these 30 min exposure periods was measured.

rats [3] = test: Locomotor activity / behavioral sensitization on repeated (7 d) dosing; assay type: in vivo; conditions: d-amphetamine alone 0.375 mg/kg i.p., 7 consecutive days; recorded 1 hour following treatment
Procedure: Rats were measured for baseline locomotor activity (Day 0). Rats then received injections of saline, d-amphetamine, or the combination of d-amphetamine and suvorexant, for 7 consecutive days. Locomotor activity was recorded for 1 hour following treatment.

C[C@@H](Cc1ccccc1)NC(=O)[C@@H](N)CCCCN [LDX, lisdexamfetamine]
binge frequency (BED patients): highly effective at reducing binge frequency | patients reporting complete binge cessation (BED patients): 35-50%

C[C@H](N)Cc1ccccc1 [d-amphetamine]
total time in REM sleep compared to baseline (rats [1]): decreased | total time in active wake compared to baseline (rats [1]): increased | palatable food intake (rats [2]; d-amphetamine alone 0.1875 mg/kg i.p. prior to test session): no significant change; also recorded: no effect | palatable food intake (rats [2]; d-amphetamine alone 0.375 mg/kg i.p. prior to test session): no significant change; also recorded: no effect | locomotor activity (behavioral reactivity) (rats [3]): significantly higher; also recorded: increased locomotor activity

Cc1nc2ccc(NC(=O)Nc3ccnc4cccnc34)cc2o1 [SB334867]
palatable food intake (binge-like eating) (rats [2]; SB334867 alone 10 mg/kg i.p.): observed only at the highest dose; also recorded: A significant reduction was observed only at a high dose | palatable food intake (binge-like eating) (rats [2]; SB334867 alone 30 mg/kg i.p.): significant change; also recorded: significant reduction

Cc1ccc(-n2nccn2)c(C(=O)N2CCN(c3nc4cc(Cl)ccc4o3)CC[C@H]2C)c1 [suvorexant]
palatable food intake (rats [2]; suvorexant alone 10 mg/kg i.p. prior to test session): no significant change; also recorded: no effect
